Test results reported in paper PMC9518264, “Design and synthesis of novel quinazolinone-based derivatives as EGFR inhibitors with antitumor activity” (Journal of Enzyme Inhibition and Medicinal Chemistry, 2022).

Key:
UO-31 = assay: cells; format: cell-based; conditions: Homo sapiens; UO-31; 10 μM; read-out: growth inhibition % (GI%)
HT29 = assay: cells; format: cell-based; conditions: Homo sapiens, HT-29; HT29; 10 μM; read-out: growth inhibition % (GI%)
CCRF-CEM = assay: cells; format: cell-based; conditions: Homo sapiens, 10 μM, read-out: growth inhibition % (GI%)
[1] = tested on: panel of 60 tumour cell lines; assay: NCI 60 cell line antiproliferative screening (SRB), whole panel or subpanels (means, ranges, words); format: cell-based, human; conditions: for antiproliferative activity against all tested cell lines: 10 μM single dose; for inhibition at 10 µM: Homo sapiens, 60 cell, read-out: Mean growth inhibition % (mean GI%)
HS 578T = assay: cells; format: cell-based; conditions: Homo sapiens; HS 578T; 10 μM; read-out: growth inhibition % (GI%)
PC-3 = assay: cells; format: cell-based; conditions: Homo sapiens; PC-3; 10 μM; read-out: growth inhibition % (GI%)
SNB-19 = assay: cells; format: cell-based; conditions: Homo sapiens; SNB-19; 10 μM; read-out: growth inhibition % (GI%)
HOP-62 = assay: cells; format: cell-based; conditions: Homo sapiens; HOP-62; 10 μM; read-out: growth inhibition % (GI%)
HCT-15 = assay: cells; format: cell-based; conditions: Homo sapiens; HCT-15; 10 μM; read-out: growth inhibition % (GI%)
SF-268 = assay: cells; format: cell-based; conditions: Homo sapiens; SF-268; 10 μM; read-out: growth inhibition % (GI%)
SW-620 = assay: cells; format: cell-based; conditions: Homo sapiens; SW-620; 10 μM; read-out: growth inhibition % (GI%)
MDA-MB-468 = assay: NCI 60 cell line antiproliferative screening (SRB), Breast cancer; conditions: Homo sapiens, MDA-MB-468, read-out: growth inhibition % (GI%)
NCI-H322M = assay: cells; format: cell-based; conditions: Homo sapiens, 10 μM, read-out: growth inhibition % (GI%)
SK-MEL-28 = assay: cells; format: cell-based; conditions: Homo sapiens; SK-MEL-28; 10 μM; read-out: growth inhibition % (GI%)
EKVX = assay: cells; format: cell-based; conditions: Homo sapiens, 10 μM, read-out: growth inhibition % (GI%)
SK-OV-3 = assay: cells; format: cell-based; conditions: Homo sapiens; SK-OV-3; 10 μM; read-out: growth inhibition % (GI%)
SF-295 = assay: cells; format: cell-based; conditions: Homo sapiens; SF-295; 10 μM; read-out: growth inhibition % (GI%)
MDA-MB-435 = assay: cells; format: cell-based; conditions: Homo sapiens; MDA-MB-435; 10 μM; read-out: growth inhibition % (GI%)
HCC-2998 = assay: cells; format: cell-based; conditions: Homo sapiens; HCC-2998; 10 μM; read-out: growth inhibition % (GI%)
K-562 = assay: cells; format: cell-based; conditions: Homo sapiens, K562; K-562; 10 μM; read-out: growth inhibition % (GI%)
SN12C = assay: cells; format: cell-based; conditions: Homo sapiens, 10 μM, read-out: growth inhibition % (GI%)
OVCAR-4 = assay: cells; format: cell-based; conditions: Homo sapiens; OVCAR-4; 10 μM; read-out: growth inhibition % (GI%)
NCI-H522 = assay: cells; format: cell-based; conditions: Homo sapiens; NCI-H522; 10 μM; read-out: growth inhibition % (GI%)
SR = assay: cells; format: cell-based; conditions: Homo sapiens, 10 μM, read-out: growth inhibition % (GI%)
LOX IMIV = assay: cells; format: cell-based; conditions: Homo sapiens, 60 cell; LOX IMIV; 10 μM; read-out: growth inhibition % (GI%)
IGROV1 = assay: cells; format: cell-based; conditions: Homo sapiens, IGROV-1; IGROV1; 10 μM; read-out: growth inhibition % (GI%)
NCI-H226 = assay: cells; format: cell-based; conditions: Homo sapiens; NCI-H226; 10 μM; read-out: growth inhibition % (GI%)
U251 = assay: cells; format: cell-based; conditions: Homo sapiens, U-251; U251; 10 μM; read-out: growth inhibition % (GI%)
T-47D = assay: cells; format: cell-based; conditions: Homo sapiens, T47D; T-47D; 10 μM; read-out: growth inhibition % (GI%)
KM12 = assay: cells; format: cell-based; conditions: Homo sapiens; KM12; 10 μM; read-out: growth inhibition % (GI%)
SK-MEL-5 = assay: cells; format: cell-based; conditions: Homo sapiens; SK-MEL-5; 10 μM; read-out: growth inhibition % (GI%)
HOP-92 = assay: cells; format: cell-based; conditions: Homo sapiens; HOP-92; 10 μM; read-out: growth inhibition % (GI%)
MCF7 = assay: cells; format: cell-based; conditions: Homo sapiens; MCF7; 10 μM; read-out: growth inhibition % (GI%)
786-0 = assay: cells; format: cell-based; conditions: Homo sapiens; 786-0; 10 μM; read-out: growth inhibition % (GI%)
A549/ATCC = assay: cells; format: cell-based; conditions: Homo sapiens; A549/ATCC; 10 μM; read-out: growth inhibition % (GI%)
SK-MEL-2 = assay: cells; format: cell-based; conditions: Homo sapiens; SK-MEL-2; 10 μM; read-out: growth inhibition % (GI%)
MOLT-4 = assay: cells; format: cell-based; conditions: Homo sapiens; MOLT-4; 10 μM; read-out: growth inhibition % (GI%)
A498 = assay: cells; format: cell-based; conditions: Homo sapiens; A498; 10 μM; read-out: growth inhibition % (GI%)
HCT-116 = assay: cells; format: cell-based; conditions: Homo sapiens; HCT-116; 10 μM; read-out: growth inhibition % (GI%)
COLO-205 = assay: cells; format: cell-based; conditions: Homo sapiens; COLO-205; 10 μM; read-out: growth inhibition % (GI%)
OVCAR-8 = assay: cells; format: cell-based; conditions: Homo sapiens; OVCAR-8; 10 μM; read-out: growth inhibition % (GI%)
SNB-75 = assay: cells; format: cell-based; conditions: Homo sapiens; SNB-75; 10 μM; read-out: growth inhibition % (GI%)
TK-10 = assay: cells; format: cell-based; conditions: Homo sapiens; TK-10; 10 μM; read-out: growth inhibition % (GI%)
OVCAR-3 = assay: NCI 60 cell line antiproliferative screening (SRB), Ovarian cancer; conditions: Homo sapiens, OVCAR-3, read-out: growth inhibition % (GI%)
MDA-MB-231/ATCC = assay: NCI 60 cell line antiproliferative screening (SRB), Breast cancer; format: cell-based; conditions: Homo sapiens, MDA-MB-231, read-out: growth inhibition % (GI%)
ACHN = assay: cells; format: cell-based; conditions: Homo sapiens, 10 μM, read-out: growth inhibition % (GI%)
[2] = mean over the cell line panel, 10 μM

## COc1ccc(Oc2ccc(C=NNC(=O)CSc3nc4ccccc4c(=O)n3-c3ccccc3)cc2)cc1 [6c, N'-(4–(4-methoxyphenoxy)benzylidene)-2-((4-oxo-3-phenyl-3,4-dihydroquinazolin-2-yl)thio)acetohydrazide]
UO-31
  inhibition at 10 µM: < 15%
HT29
  inhibition at 10 µM: < 15%
CCRF-CEM
  inhibition at 10 µM: < 15%
[1]
  antiproliferative activity against all tested cell lines: no activity
[1]; [2]
  inhibition at 10 µM: 0%
  Mean growth inhibition % (mean GI%): < 0%
HS 578T
  inhibition at 10 µM: < 15%
PC-3
  inhibition at 10 µM: < 15%
SNB-19
  inhibition at 10 µM: < 15%
HOP-62
  inhibition at 10 µM: < 15%
HCT-15
  inhibition at 10 µM: < 15%
SF-268
  inhibition at 10 µM: < 15%
SW-620
  inhibition at 10 µM: < 15%
MDA-MB-468
  inhibition at 10 µM: < 15%
NCI-H322M
  inhibition at 10 µM: < 15%
SK-MEL-28
  inhibition at 10 µM: < 15%
EKVX
  inhibition at 10 µM: < 15%
SK-OV-3
  inhibition at 10 µM: < 15%
SF-295
  inhibition at 10 µM: < 15%
MDA-MB-435
  inhibition at 10 µM: < 15%
HCC-2998
  inhibition at 10 µM: < 15%
K-562
  inhibition at 10 µM: < 15%
SN12C
  inhibition at 10 µM: < 15%
OVCAR-4
  inhibition at 10 µM: < 15%
NCI-H522
  inhibition at 10 µM: < 15%
SR
  inhibition at 10 µM: < 15%
LOX IMIV
  inhibition at 10 µM: < 15%
IGROV1
  inhibition at 10 µM: < 15%
NCI-H226
  inhibition at 10 µM: < 15%
U251
  inhibition at 10 µM: < 15%
T-47D
  inhibition at 10 µM: < 15%
KM12
  inhibition at 10 µM: < 15%
SK-MEL-5
  inhibition at 10 µM: < 15%
HOP-92
  inhibition at 10 µM: < 15%
MCF7
  inhibition at 10 µM: < 15%
786-0
  inhibition at 10 µM: < 15%
A549/ATCC
  inhibition at 10 µM: < 15%
SK-MEL-2
  inhibition at 10 µM: < 15%
MOLT-4
  inhibition at 10 µM: < 15%
A498
  inhibition at 10 µM: 17.2%
HCT-116
  inhibition at 10 µM: < 15%
COLO-205
  inhibition at 10 µM: < 15%
OVCAR-8
  inhibition at 10 µM: < 15%
SNB-75
  inhibition at 10 µM: < 15%
TK-10
  inhibition at 10 µM: < 15%
OVCAR-3
  inhibition at 10 µM: < 15%
MDA-MB-231/ATCC
  inhibition at 10 µM: < 15%
ACHN
  inhibition at 10 µM: < 15%

## O=C(CSc1nc2ccccc2c(=O)n1-c1ccc(Cl)cc1)NN=Cc1ccc(N2CCOCC2)cc1 [6k, 2-((3–(4-chlorophenyl)-4-oxo-3,4-dihydroquinazolin-2-yl)thio)-N'-(4-morpholinobenzylidene) acetohydrazide]
UO-31
  inhibition at 10 µM: < 15%
HT29
  inhibition at 10 µM: < 15%
CCRF-CEM
  inhibition at 10 µM: < 15%
[1]
  antiproliferative activity against all tested cell lines: did not show activity
[1]; [2]
  inhibition at 10 µM: < 0%
HS 578T
  inhibition at 10 µM: < 15%
PC-3
  inhibition at 10 µM: < 15%
SNB-19
  inhibition at 10 µM: < 15%
HOP-62
  inhibition at 10 µM: < 15%
HCT-15
  inhibition at 10 µM: < 15%
SF-268
  inhibition at 10 µM: < 15%
SW-620
  inhibition at 10 µM: < 15%
MDA-MB-468
  inhibition at 10 µM: < 15%
NCI-H322M
  inhibition at 10 µM: < 15%
SK-MEL-28
  inhibition at 10 µM: < 15%
EKVX
  inhibition at 10 µM: < 15%
SK-OV-3
  inhibition at 10 µM: < 15%
SF-295
  inhibition at 10 µM: < 15%
MDA-MB-435
  inhibition at 10 µM: < 15%
HCC-2998
  inhibition at 10 µM: < 15%
K-562
  inhibition at 10 µM: < 15%
SN12C
  inhibition at 10 µM: < 15%
OVCAR-4
  inhibition at 10 µM: < 15%
NCI-H522
  inhibition at 10 µM: < 15%
SR
  inhibition at 10 µM: < 15%
LOX IMIV
  inhibition at 10 µM: < 15%
IGROV1
  inhibition at 10 µM: < 15%
NCI-H226
  inhibition at 10 µM: < 15%
U251
  inhibition at 10 µM: < 15%
T-47D
  inhibition at 10 µM: < 15%
KM12
  inhibition at 10 µM: < 15%
SK-MEL-5
  inhibition at 10 µM: < 15%
HOP-92
  inhibition at 10 µM: < 15%
MCF7
  inhibition at 10 µM: < 15%
786-0
  inhibition at 10 µM: < 15%
A549/ATCC
  inhibition at 10 µM: < 15%
SK-MEL-2
  inhibition at 10 µM: < 15%
MOLT-4
  inhibition at 10 µM: < 15%
A498
  inhibition at 10 µM: < 15%
HCT-116
  inhibition at 10 µM: < 15%
COLO-205
  inhibition at 10 µM: < 15%
OVCAR-8
  inhibition at 10 µM: < 15%
SNB-75
  inhibition at 10 µM: < 15%
TK-10
  inhibition at 10 µM: < 15%
OVCAR-3
  inhibition at 10 µM: < 15%
MDA-MB-231/ATCC
  inhibition at 10 µM: < 15%
ACHN
  inhibition at 10 µM: < 15%
